“Also recorded” adds a separate entry of the source.

This is an account of results in patent publication US20040248099A1, “Use of intermediate -conductance potassium channels and modulators for diagnosing and treating diseases having disturbed keratinocyte activity” (priority 2000, published 2004).

For data set [1], the system named is HaCaT keratinocytes. Briefly: Proliferation of subconfluent HaCaT keratinocytes, number of cells per well determined daily. The conditions noted are these: n=3. It counts as cell-based, human. As for the experimental part: In order to investigate the effect of the hIK1 channel inhibitors clotrimazole and charybdotoxin, either 10 μM clotrimazole, 200 nM charybdotoxin (ChTx) or 1 mM 1-EBIO were/was added to cells which were growing subconfluently and the number of cells per well was determined daily.

Data set [2] has as its system HaCaT cells. Briefly: Keratinocyte differentiation by immunostaining with anti-K10 antibody. Format: cell-based, human. The conditions noted are these: 1-EBIO 1 mM, 3 days.
For data set [3], the system named is HaCaT keratinocytes. Briefly: Patch-clamp recording of the membrane potential of HaCaT keratinocytes (current clamp; ATP-induced response). Format: cell-based, human. Particulars: for blockers leading to a comparable depolarization on a plateau during treatment with ATP: other K+ channel blockers tested. As for the experimental part:
In order to identify an ion channel which is substantially involved in the transduction of wound healing-specific signals, HaCaT cells were investigated electrophysiologically. The HaCaT keratinocytes were propagated in DEM containing 10% FCS (Gibco BRL) to which antibiotics (penicillin/streptomycin, 100 U/ml) had been added. […] The patch pipettes were prepared from small borosilicate tubes on a horizontal pulling device (DMZ, Zeitz) using the two-step pulling method. […] The resistance of these patch pipettes was 5-8 GΩ in the bath. After a seal in the GΩ range had been produced (typically 1.5-2 GΩ) the amplifier was switched to current clamp mode. […] The electrophysiological signals were recorded, amplified and digitalized using an Axopatch 200 amplifier in combination with a TL-1 Labmaster Interface and AXOTAPE software (Axon Instruments). The statistical analysis (one-way ANOVA with Bonferri post-test comparison) was carried out using Graphpad prism 2.0. […]
The inflow of liquid was gravity-dependent and was controlled by means of magnetic valves. Outflow was effected by applying a negative pressure using a vacuum pump. Substances were added, while observing visually, directly into the keratinocytes under investigation using a remotely controlled, magnet-controlled Y tube system (diameter of the efflux tube: 100 μm).
The electrophysiological recordings were carried out, using perforated patches, on HaCaT cells which had grown into a confluent monolayer.

Data set [4] deals with HaCaT cells. Briefly: Immunoblotting of the differentiation markers involucrin, keratin 1 and keratin 10. Format: cell-based, human. The conditions noted are these: 1-EBIO 1, 100, 1000 μM, 4 days; dose-dependent. As for the experimental part:
For this, 5×10^5 HaCaT cells per well were grown in medium in a 6-well plate. […] 1% DMSO in medium was used as the solvent control (lane ‘C’). The cells were incubated for 4 days, with the medium being replaced daily. After 4 days, the protein concentration in the cell lysates was determined (BCA Assay, Pierce). Immunoblotting was then used to compare equal quantities of protein from the different lysates with the keratinocyte differentiation markers involucrin (1:500, Sigma) and keratin 1 and 10 (1:250, Progen) (FIG. 6).
A general note: Immunoblotting shows a protein as a band on a membrane.

The subject of data set [5] is HaCaT keratinocytes. Briefly: BrDU incorporation cell proliferation ELISA in HaCaT keratinocytes. As for the experimental part: The influence of activators of IK1 on proliferation was investigated using 1-EBIO and zolxazolamine (see above). Firstly, the influence of different concentrations of 1-EBIO on the growth rate of HaCaT cells was measured in the presence and in the absence of serum. For this purpose, 1×10^4 HaCaT cells per well were cultured in keratinocyte growth medium (KGM) for 5 days in a 96-well plate, in order to synchronize the cell cycle, with this being followed by a two-day incubation in the presence of different concentrations of 1-EBIO in KGM (see FIGS. 7 and 8) in the absence (FIG. 7) and in the presence (FIG. 8) of serum. […] 1% DMSO in KGM served as the solvent control. Cell proliferation was measured by the incorporation of bromodideoxyuridine (BrDU) while cell division was measured in accordance with the manufacturer's instructions (‘The Cell Proliferation ELISA, BrDU, Roche). The incorporation of BrDU was quantified by determining the absorption at 450 nm. In FIGS. 7 and 8, the absorption (A[450 nm]) is in each case plotted on the Y axis as a measure of the proliferation rate. Greater absorption reflects greater proliferation.

For `CCn1c(=O)[nH]c2ccccc21` [1-EBIO, 1-ethyl-2-benzimidazolinone], in the data set with HaCaT keratinocytes [1] (1-EBIO 1 mM), the influence on proliferation result is reported as “inhibited proliferation completely; also recorded: complete inhibition”. Besides, the “proportion of K10-stained (partially differentiated) cells versus control cells” value with HaCaT cells [2] is reported as “signficantly reduced”. The “membrane potential (rapid and powerful hyperpolarization to)” value with HaCaT keratinocytes [3] (1-EBIO 1 mM, n=3) is −83±3 mV. Besides, the “transient depolarization on adding ATP, compared with controlled conditions” value in the data set on HaCaT keratinocytes [3] (ATP 10 μM in the presence of 1-EBIO 1 mM) was “much stronger”. Also, the “effect on differentiation (involucrin, K1, K10 protein)” value in the data set on HaCaT cells [4] was “inhibit differentiation”. In addition, the “cell morphology and apoptosis under activator” value in the data set with HaCaT keratinocytes [5] is listed as “no sign of apoptosis”. In the data set with HaCaT keratinocytes [5] (10% FCS), the “concentration of strongest inhibition of serum-induced proliferation” value is on record as 1 mM and the “dose dependence of the inhibition of serum-induced proliferation” value is recorded as “dose-dependent”. Further, in the data set on HaCaT keratinocytes [5] (10% FCS, different concentrations of 1-EBIO, two-day incubation), the “effect on serum-induced proliferation (BrDU incorporation)” value was “inhibit serum-induced proliferation”. For the same molecule, the “stimulation of cell proliferation (BrDU incorporation)” value in the data set on HaCaT keratinocytes [5] (absence of serum, different concentrations of 1-EBIO, two-day incubation) is given as “not on their own able to stimulate cell proliferation”.
In the case of `Nc1ncnc2c1ncn2[C@@H]1O[C@H](COP(=O)(O)OP(=O)(O)OP(=O)(O)O)[C@@H](O)[C@H]1O` [ATP], in the data set on HaCaT keratinocytes [3] (1 μM ATP, n=9), the “reversibility of the hyperpolarization” value is “could be reversed rapidly by washing out”. The hyperpolarization in the data set on HaCaT keratinocytes [3] (10 μM ATP, n=28) is given as 30±2 mV. Also, in the data set with HaCaT keratinocytes [3] (ATP 1-1000 μM, transient depolarization followed by long-lasting hyperpolarization), the “change in the membrane potential on perfusion” value is “biphasic change in the membrane potential”. The “duration of the strong hyperpolarization after addition” value in the data set on HaCaT keratinocytes [3] (ATP concentrations of ≧10 μM) is “at least 5 min”.
As for `[Ba+2]` [Ba^2+], the “blockers leading to a comparable depolarization on a plateau during treatment with ATP” value in the data set on HaCaT keratinocytes [3] was “None”.
Regarding `CCn1c(=O)[nH]c2cc(Cl)c(Cl)cc21` [DCEBIO, 5,6-dichloro-1-ethyl-1,3-dihydro-2H-benzimidazol-2-one], in the data set with HaCaT keratinocytes [3] (HaCaT cells), the “concentration for the same electrophysiological effect as 1-EBIO, times less concentrated” value is 300-1000 times.
Turning to `CCCCCCCCCCCCCC(=O)O[C@@H]1[C@@H](C)[C@@]2(O)[C@@H](C=C(CO)C[C@]3(O)C(=O)C(C)=C[C@@H]23)[C@@H]2C(C)(C)[C@]12OC(C)=O` [PMA], the “influence on the effect of ATP” value in the data set with HaCaT keratinocytes [3] is “no influence”.
As for `CC[N+](CC)(CC)CC` [TEA], the “blockers leading to a comparable depolarization on a plateau during treatment with ATP” value in the data set with HaCaT keratinocytes [3] is recorded as “None”.
Turning to `Clc1ccccc1C(c1ccccc1)(c1ccccc1)n1ccnc1` [clotrimazole], the influence on proliferation result is reported as “complete inhibition” in the data set on HaCaT keratinocytes [1] (clotrimazole 10 μM) and “inhibited proliferation completely” with HaCaT keratinocytes [1] (clotrimazole 10 μM, listed as Clotrimazole). Besides, the “effect on the ATP-induced electrophysiological response, compared with 100 nM ChTx” value with HaCaT keratinocytes [3] (clotrimazole 1 μM prior to ATP, n=3) is given as “The same effect”.
For the molecule `NCCc1c[nH]cn1` [histamine], the “electrophysiological response compared with ATP” value in the data set on HaCaT keratinocytes [3] (histamine 100 μM, n=4) is “practically identical quantitatively and kinetically”.
Turning to calphostin C, the “effect on the ATP-mediated change in voltage” value in the data set on HaCaT keratinocytes [3] (calphostin C 50 nM) is “no effect”.
As for “charybdotoxin (QFTNVSCTTSKECWSVCQRLHNTSRGKCMNKKCRCYS)”, the influence on proliferation result in the data set with HaCaT keratinocytes [1] (charybdotoxin 200 nM) is listed as “retarded proliferation; also recorded: growth which was only retarded”. Moreover, the “effect on the established ATP-mediated hyperpolarization” value in the data set with HaCaT keratinocytes [3] (ChTx 100 nM added after ATP, ATP still present, n=2) is “complete reversal of the hyperpolarization”. Besides, the “effect on the ATP-induced electrophysiological response” value in the data set on HaCaT keratinocytes [3] (ChTx 100 nM prior to ATP, n=4, potential stayed on a depolarized plateau) is “completely prevented repolarization”; with HaCaT keratinocytes [3] (ChTx 10-100 nM prior to ATP, n=15), “retarded repolarization of the rapid depolarization and prevented hyperpolarization”. Further, the “inhibition of the ATP-mediated hyperpolarization” value with HaCaT keratinocytes [3] (charybdotoxin at various concentrations prior to ATP) is given as “dose-dependent inhibition”.
